Like-named read-outs stand apart in the source and are kept apart here.
Columns and labels:
EGFR (WT) = biological target: T1, EGFR (WT) (Homo sapiens, UniProt P00533); test: In vitro kinase binding assay (phage/DNA-tagged kinase, affinity beads, qPCR), wild-type EGFR
T1 construct: The EGFR constructs span amino acids R669 to V1011 of the EGFR protein; T7 phage display fusion (kinase-tagged T7 phage) or DNA tag for qPCR; made in house; host or cells: E. coli (BL21-derived) infected with T7 phage for most assays; remaining kinases in HEK-293
T1 sequence (P00533 669-1011): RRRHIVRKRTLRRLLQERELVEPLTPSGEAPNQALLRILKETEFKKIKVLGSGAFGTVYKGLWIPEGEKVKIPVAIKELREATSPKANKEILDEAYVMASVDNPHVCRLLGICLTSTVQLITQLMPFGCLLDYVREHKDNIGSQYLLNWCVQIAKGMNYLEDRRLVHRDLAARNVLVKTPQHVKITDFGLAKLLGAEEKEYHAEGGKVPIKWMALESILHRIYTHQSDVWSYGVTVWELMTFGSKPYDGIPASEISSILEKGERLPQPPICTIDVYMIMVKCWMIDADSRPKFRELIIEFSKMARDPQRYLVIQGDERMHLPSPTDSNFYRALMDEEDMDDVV
Procedure: (§1) For most assays, kinase-tagged T7 phage strains were prepared in an E. coli host derived from the BL21 strain. For the EGFR assays, wild-type EGFR, or mutant EGFR (T790M, L858R) were utilized. The EGFR constructs span amino acids R669 to V1011 of the EGFR protein. E. coli were grown to log-phase and infected with T7 phage and incubated with shaking at 32° C. until lysis. The lysates were centrifuged and filtered to remove cell debris. The remaining kinases were produced in HEK-293 cells and subsequently tagged with DNA for qPCR detection. Streptavidin-coated magnetic beads were treated with biotinylated small molecule ligands for 30 minutes at room temperature to generate affinity resins for kinase assays. The liganded beads were blocked with excess biotin and washed with blocking buffer (SeaBlock (Pierce), 1% BSA, 0.05% Tween 20, 1 mM DTT) to remove unbound ligand and to reduce non-specific binding. Binding reactions were assembled by combining kinases, liganded affinity beads, and test compounds in 1× binding buffer (20% SeaBlock, 0.17×PBS, 0.05% Tween 20, 6 mM DTT). Test compounds were prepared as 111× stocks in 100% DMSO. Kds were determined using an 11-point 3-fold compound dilution series with three DMSO control points. All compounds for Kd measurements are distributed by acoustic transfer (non-contact dispensing) in 100% DMSO. The compounds were then diluted directly into the assays such that the final concentration of DMSO was 0.9%. All reactions performed in polypropylene 384-well plate. Each was a final volume of 0.02 ml. The assay plates were incubated at room temperature with shaking for 1 hour and the affinity beads were washed with wash buffer (lx PBS, 0.05% Tween 20). The beads were then re-suspended in elution buffer (lx PBS, 0.05% Tween 20, 0.5 μM nonbiotinylated affinity ligand) and incubated at room temperature with shaking for 30 minutes. The kinase concentration in the eluates was measured by qPCR.

EGFR (L858R, T790M) = biological target: T2, EGFR (L858R, T790M) (Homo sapiens, UniProt P00533, L858R/T790M); test: In vitro kinase binding assay (phage/DNA-tagged kinase, affinity beads, qPCR), mutant EGFR; details: for Binding Affinity ratio of WT/DM: ratio of Kd EGFR (WT) to Kd EGFR (L858R, T790M)
T2 construct: The EGFR constructs span amino acids R669 to V1011 of the EGFR protein; T7 phage display fusion (kinase-tagged T7 phage) or DNA tag for qPCR; made in house; host or cells: E. coli (BL21-derived) infected with T7 phage for most assays; remaining kinases in HEK-293
T2 sequence (P00533 669-1011 T790M/L858R): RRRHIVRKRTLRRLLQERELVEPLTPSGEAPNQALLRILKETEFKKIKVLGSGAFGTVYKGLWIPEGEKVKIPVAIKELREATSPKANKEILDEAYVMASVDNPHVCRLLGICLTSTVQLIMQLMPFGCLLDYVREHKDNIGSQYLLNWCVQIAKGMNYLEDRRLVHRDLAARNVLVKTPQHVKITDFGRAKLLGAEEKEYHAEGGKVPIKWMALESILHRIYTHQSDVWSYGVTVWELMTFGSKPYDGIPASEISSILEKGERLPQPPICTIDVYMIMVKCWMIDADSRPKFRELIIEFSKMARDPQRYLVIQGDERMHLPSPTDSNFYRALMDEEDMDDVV
Procedure: as §1

[1] = wild-type EGFR construct R669 to V1011, 11-point 3-fold dilution series, 1 hour at room temperature, read-out: EGFR (WT) Kd
[2] = mutant EGFR (T790M, L858R) construct R669 to V1011, 11-point 3-fold dilution series, 1 hour at room temperature, read-out: EGFR (L858R, T790M) Kd

Kd (EGFR (WT); [1]) | Kd (EGFR (L858R, T790M); [2]) | Binding Affinity ratio of WT/DM (EGFR (L858R, T790M)) | Compound | Kd (EGFR (WT)) | Kd (EGFR (L858R, T790M))
100 to 1000 nM | 1 to 25 nM | C (100 < C ≤ 1000) | C=CC(=O)N1C[C@H](COc2nc(Nc3cnn(CCCCCNC(=O)CN4CCN(CC(=O)O)CCN(CC(=O)O)CCN(CC(=O)O)CC4)c3)nc3[nH]cc(Cl)c23)[C@@H](OC)C1 [Compound 007, 2,2′,2″-(10-(2-((5-(4-((4-(((3R,4R)-1-acryloyl-4-methoxypyrrolidin-3yl)methoxy)-5-chloro-7H-pyrrolo[2,3-d]pyrimidin-2-yl)amino)-1H-pyrazol-1-yl)pentyl)amino)-2-oxoethyl)-1,4,7,10-tetraazacyclododecane-1,4,7-triyl)triacetic acid] |  | 
2 to 100 nM | < 1 nM | A (4 < A ≤ 25) | C=CC(=O)N[C@@H]1CN(c2nc(Nc3cn(CCCNC(=O)CN4CCN(CC(=O)O)CCN(CC(=O)O)CCN(CC(=O)O)CC4)nc3OC)c3ncn(C)c3n2)C[C@H]1F [Compound 001, 2-[4,7-bis(carboxymethyl)-10-[2-[3-[4-[[2-[(3R,4R)-3-fluoro-4-(prop-2-enoylamino)pyrrolidin-1-yl]-9-methyl-purin-6-yl]amino]-3-methoxy-pyrazol-1-yl]propylamino]-2-oxo-ethyl]-1,4,7,10-tetrazacyclododec-1-yl]acetic acid] |  | 
1000 to 2500 nM | 1 to 25 nM | B (25 < B ≤ 100) | C=CC(=O)N[C@@H]1CN(c2nc(Nc3cn(CCCCCNC(=O)CN4C[C@H](CC)N(CC(=O)O)C[C@H](CC)N(CC(=O)O)C[C@H](CC)N(CC(=O)O)C[C@@H]4CC)nc3CC)c3ncn(C(C)(C)C)c3n2)C[C@H]1F [Compound 006, 2,2′,2″-((2S,5S,8S,11S)-10-(2-((5-(4-((2-((3R,4R)-3-acrylamido-4-fluoropyrrolidin-1-yl)-9-(tert-butyl)-9H-purin-6-yl)amino)-3-ethyl-1H-pyrazol-1-yl)pentyl)amino)-2-oxoethyl)-2,5,8,11-tetraethyl-1,4,7,10-tetraazacyclododecane-1,4,7-triyl)triacetic acid] |  | 
100 to 1000 nM | 1 to 25 nM | B (25 < B ≤ 100) | C=CC(=O)N[C@@H]1CN(c2nc(Nc3cn(CCCCCNC(=O)CN4CCN(CC(=O)O)CCN(CC(=O)O)CCN(CC(=O)O)CC4)nc3OC)c3ncn(C(C)(C)C)c3n2)C[C@H]1F [Compound 004, 2-[4-[2-[5-[4-[[9-tert-butyl-2-[(3R,4R)-3-fluoro-4-(prop-2-enoylamino)pyrrolidin-1-yl]purin-6-yl]amino]-3-methoxy-pyrazol-1-yl]pentylamino]-2-oxo-ethyl]-7,10-bis(carboxymethyl)-1,4,7,10-tetrazacyclododec-1-yl]acetic acid] |  | 
1000 to 2500 nM | 1 to 25 nM | C (100 < C ≤ 1000) | C=CC(=O)N[C@@H]1CN(c2nc(Nc3cn(CCCCCNC(=O)CN4CCN(CC(=O)O)CCN(CC(=O)O)CCN(CC(=O)O)CC4)nc3CC)c3ncn(C(C)(C)C)c3n2)C[C@H]1F [Compound 005, 2-[4-[2-[5-[4-[[9-tert-butyl-2-[(3R,4R)-3-fluoro-4-(prop-2-enoylamino)pyrrolidin-1-yl]purin-6-yl]amino]-3-ethyl-pyrazol-1-yl]pentylamino]-2-oxo-ethyl]-7,10-bis(carboxymethyl)-1,4,7,10-tetrazacyclododec-1-yl]acetic acid] |  | 
2 to 100 nM | < 1 nM | A (4 < A ≤ 25) | C=CC(=O)N[C@@H]1CN(c2nc(Nc3cn(CCCCCCCNC(=O)CN4CCN(CC(=O)O)CCN(CC(=O)O)CCN(CC(=O)O)CC4)nc3OC)c3ncn(C)c3n2)C[C@H]1F [Compound 003, 2-[4,7-bis(carboxymethyl)-10-[2-[7-[4-[[2-[(3R,4R)-3-fluoro-4-(prop-2-enoylamino)pyrrolidin-1-yl]-9-methyl-purin-6-yl]amino]-3-methoxy-pyrazol-1-yl]heptylamino]-2-oxo-ethyl]-1,4,7,10-tetrazacyclododec-1-yl]acetic acid] |  | 

Compound | Kd (EGFR (WT); [1]) | Kd (EGFR (L858R, T790M); [2]) | Binding Affinity ratio of WT/DM (EGFR (L858R, T790M)) | Kd (EGFR (WT)) | Kd (EGFR (L858R, T790M))
C=CC(=O)N[C@@H]1CN(c2nc(Nc3cn(CCCCCNC(=O)CN4CCN5CCN6CCN(CC4)CC(=O)[O][Lu]([O]C(=O)C5)[O]C(=O)C6)nc3OC)c3ncn(C)c3n2)C[C@H]1F [Compound 002-Lu, N-[(3R,4R)-4-fluoro-1-[6-[[3-methoxy-1-[5-[[2-(3,16,19-trioxo-2,17,18-trioxa-5,8,11,14-tetraza-1λ3-lutetatricyclo[9.6.3.25,14]docosan-8-yl)acetyl]amino]pentyl]pyrazol-4-yl]amino]-9-methyl-purin-2-yl]pyrrolidin-3-yl]prop-2-enamide] |  |  | A (4 < A ≤ 25) | 2 to 100 nM | < 1 nM
C=CC(=O)N[C@@H]1CN(c2nc(Nc3cn(CCCCCNC(=O)CN4CCN5CCN6CCN(CC4)CC(=O)[O][Lu]([O]C(=O)C5)[O]C(=O)C6)nc3OC)c3ncn(C(C)(C)C)c3n2)C[C@H]1F [Compound 004-Lu, N-[(3R,4R)-1-[9-tert-butyl-6-[[3-methoxy-1-[5-[[2-(3,16,19-trioxo-2,17,18-trioxa-5,8,11,14-tetraza-1λ3-lutetatricyclo[9.6.3.25,14]docosan-8-yl)acetyl]amino]pentyl]pyrazol-4yl]amino]purin-2-yl]-4-fluoro-pyrrolidin-3-yl]prop-2-enamide] |  |  | B (25 < B ≤ 100) | 2 to 100 nM | < 1 nM
C=CC(=O)N[C@@H]1CN(c2nc(Nc3cn(CCCCCCCNC(=O)CN4CCN5CCN6CCN(CC4)CC(=O)[O][Lu]([O]C(=O)C5)[O]C(=O)C6)nc3OC)c3ncn(C)c3n2)C[C@H]1F [Compound 003-Lu, N-[(3R,4R)-4-fluoro-1-[6-[[3-methoxy-1-[7-[[2-(3,16,19-trioxo-2,17,18-trioxa-5,8,11,14-tetraza-1λ3-lutetatricyclo[9.6.3.25,14]docosan-8-yl)acetyl]amino]heptyl]pyrazol-4-yl]amino]-9-methyl-purin-2-yl]pyrrolidin-3-yl]prop-2-enamide] |  |  | A (4 < A ≤ 25) | 2 to 100 nM | < 1 nM
C=CC(=O)N1C[C@H](COc2nc(Nc3cnn(CCCCCNC(=O)CN4CCN5CCN6CCN(CC4)CC(=O)[O][Lu]([O]C(=O)C5)[O]C(=O)C6)c3)nc3[nH]cc(Cl)c23)[C@@H](OC)C1 [Compound 007-Lu, N-[5-[4-[[5-chloro-4-[[(3R,4R)-4-methoxy-1-prop-2-enoyl-pyrrolidin-3-yl]methoxy]-7H-pyrrolo [2,3-d]pyrimidin-2-yl]amino]pyrazol-1-yl]pentyl]-2-(3,16,19-trioxo-2,17,18-trioxa-5,8,11,14-tetraza-1λ3-lutetatricyclo[9.6.3.25,14]docosan-8-yl)acetamide] |  |  | C (100 < C ≤ 1000) | 100 to 1000 nM | < 1 nM
C=CC(=O)N[C@@H]1CN(c2nc(Nc3cn(CCCCCNC(=O)CN4CCN5CCN6CCN(CC4)CC(=O)[O][Lu]([O]C(=O)C5)[O]C(=O)C6)nc3CC)c3ncn(C(C)(C)C)c3n2)C[C@H]1F [Compound 005-Lu, N-[(3R,4R)-1-[9-tert-butyl-6-[[3-ethyl-1-[5-[[2-(3,16,19-trioxo-2,17,18-trioxa-5,8,11,14-tetraza-1λ3-lutetatricyclo[9.6.3.25,14]docosan-8-yl)acetyl]amino]pentyl]pyrazol-4-yl]amino]purin-2-yl]-4-fluoro-pyrrolidin-3-yl]prop-2-enamide] |  |  | C (100 < C ≤ 1000) | 1000 to 2500 nM | 1 to 25 nM
C=CC(=O)N[C@@H]1CN(c2nc(Nc3cn(CCCCCNC(=O)CN4CCN(CC(=O)O)CCN(CC(=O)O)CCN(CC(=O)O)CC4)nc3OC)c3ncn(C)c3n2)C[C@H]1F [Compound 002, 2-[4,7-bis(carboxymethyl)-10-[2-[5-[4-[[2-[(3R,4R)-3-fluoro-4-(prop-2-enoylamino)pyrrolidin-1-yl]-9-methyl-purin-6-yl]amino]-3-methoxy-pyrazol-1-yl]pentylamino]-2-oxo-ethyl]-1,4,7,10-tetrazacyclododec-1-yl]acetic acid] | 2 to 100 nM | < 1 nM |  |  | 
